Experiments:
large intestine tissue [1] = experiment: relative fluorescence brightness estimated from spectral sensitivity of the confocal microscope; format: in vivo, mouse; conditions: same dye concentration
Description: That is, this function can be used for relative estimation of the fluorescence intensity of each of the samples having different brightness levels.
The fluorescence brightness of a sample with Sodium fluorescein relative to Monascus color (yellow), as calculated on the basis of such spectral sensitivity as to give the same degree of fluorescence brightness, was 0.74 times after 10 minutes or 0.84 times after 60 minutes.

large intestine tissue [2] = experiment: staining test by perfusion through the heart of a mouse; format: in vivo; conditions: 1 mg/mL
Description: A staining test was carried out with Monascus color (yellow) (1 mg/mL, 2 mL) by perfusion thereof through the heart of a mouse. […] The permeability of stain by this perfusion staining method was higher than the method in which the excised tissue is stained (Example 2) or the method in which colors are injected through the anus (Example 7). […] That is, the well-stained sites were the same as in Examples 7 and 8.
Sodium fluorescein (1 mg/mL) was also examined in the same manner as in Example 9.

mouse large intestine [3] = experiment: mouse large intestine staining test with purified xanthomonasin A, confocal image; format: in vivo; conditions: 10 mg/mL saline, 100 μL, 5 minutes
Description: Using purified xanthomonasin A in Example 10, a mouse large intestine staining test was carried out. A mouse (ddY, 9-week-old, male) was anesthetized, and 100 μL xanthomonasin A (centrifuged and dried sample, 10 mg/mL saline) was injected via an injection needle into the large intestine lumen for staining. After 5 minutes, the mouse large intestine was excised and its confocal image was taken and observed under a confocal microscope (TCS SP2).

mouse large intestine [4] = experiment: mouse large intestine staining test with xanthomonasin A, frozen section observation; format: in vivo; conditions: 10 mg/mL saline, 100 μL, 5 minutes; 6 μm frozen section
Description: Purified xanthomonasin A in Example 10 was used in a mouse large intestine staining test and for observing a frozen section. A mouse (ddY, 11-week-old, male) was anesthetized, and 100 μL xanthomonasin A (centrifuged and dried sample, 10 mg/mL saline) was injected via an injection needle into the large intestine lumen for staining. After 5 minutes, the mouse large intestine was excised, frozen and embedded in OCT compound, and the frozen section thus obtained was cut into thin slices each having a thickness of 6 μm. The thin slices were observed by hematoxylin-eosin staining and also observed for fluorescence by staining with xanthomonasin A.

mouse large intestine [5] = experiment: mouse large intestine staining with xanthomonasin A, excised after 1 minute and 10 minutes; format: in vivo; conditions: 1 mg/mL saline, 100 μL
Description: Mice (ddY, 9-week-old, male) were anesthetized, and 100 μL xanthomonasin A (centrifuged and dried sample, 1 mg/mL saline) was injected via an injection needle into the large intestine lumen for staining. The mouse large intestines were excised after 1 minute and 10 minutes respectively, and the samples were observed under a confocal microscope (TCS SP2).

With `O=C([O-])c1ccccc1-c1c2ccc(=O)cc-2oc2cc([O-])ccc12.[Na+].[Na+]` [Sodium fluorescein] the “fluorescence brightness relative to Monascus color (yellow)” value (large intestine tissue [1]; after 10 minutes) was 0.74 times, the “fluorescence brightness relative to Monascus color (yellow)” value (large intestine tissue [1]; after 60 minutes) was 0.84 times and the “staining of cell nuclei” value (large intestine tissue [2]) was “could not be judged”. For the same compound, the “staining of cells constituting the mucosa” value (large intestine tissue [2]) was “many of the cells constituting the mucosal tissue were stained well” and the “staining of mucus components of goblet cells” value (large intestine tissue [2]) was “not stained”.
In the case of `C/C=C/[C@]1(O)Cc2c(oc(O)c2C=O)C2=C(C(=O)CCCCC)C(=O)O[C@@]21C` [xanthomonasin A], the “quality of sectional images” value (mouse large intestine [3]) was “very vivid sectional images were obtained”, the “staining of epithelial cells” value (mouse large intestine [4]) was “stained relatively excellently” and the “staining of muscular plate” value (mouse large intestine [4]) was “excellently stained”. For the same compound, the “stained sites, 1 minute versus 10 minutes” value (mouse large intestine [5]) was “identical in respect of stained sites” and the visibility (mouse large intestine [5]; stained for 10 minutes) was “could be further improved”.
